From patent US6114310A, “Efflux pump inhibitors” (priority 1998, dated 2000)

Tested on: Pseudomonas aeruginosa PAM1001
Assay: microbe, parasite or virus in culture
Assay type: cell-based
Outline: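 Checkerboard broth microdilution (NCCLS) with the efflux pump inhibitor and levofloxacin, each diluted along one axis of the plate, in Mueller Hinton Broth. Inoculum 5×10^5 CFU/ml from early-log culture; incubation 20 h at 35° C. Growth read at 650 nm and visually.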

[1] = Table 1, EPI Conc. μg/ml (number not given; column between 10 and 40 μg/ml)
[2] = Table 2, EPI Conc. μg/ml (number not given; column between 10 and 40 μg/ml)
[3] = Table 3, EPI Conc. μg/ml (number not given; column between 10 and 40 μg/ml)
[4] = Table 4, EPI Conc. μg/ml (number not given; column between 10 and 40 μg/ml)

Substance	Levofloxacin MIC Against P. aeruginosa PAM1001 in Presence of Efflux Pump Inhibitor (EPI), Minimum Inhibitory Concentration (Table 1, EPI Conc. 0 μg/ml) [µg/mL]	Levofloxacin MIC Against P. aeruginosa PAM1001 in Presence of Efflux Pump Inhibitor (EPI), Minimum Inhibitory Concentration (Table 1, EPI Conc. 0.625 μg/ml) [µg/mL]	Levofloxacin MIC Against P. aeruginosa PAM1001 in Presence of Efflux Pump Inhibitor (EPI), Minimum Inhibitory Concentration (Table 1, EPI Conc. 5 μg/ml) [µg/mL]	Levofloxacin MIC Against P. aeruginosa PAM1001 in Presence of Efflux Pump Inhibitor (EPI), Minimum Inhibitory Concentration (Table 1, EPI Conc. 10 μg/ml) [µg/mL]	Levofloxacin MIC Against P. aeruginosa PAM1001 in Presence of Efflux Pump Inhibitor (EPI), Minimum Inhibitory Concentration (Table 1, EPI Conc. 40 μg/ml) [µg/mL]	Levofloxacin MIC Against P. aeruginosa PAM1001 in Presence of Efflux Pump Inhibitor (EPI), Minimum Inhibitory Concentration [1] [µg/mL]	Levofloxacin MIC Against P. aeruginosa PAM1001 in Presence of Efflux Pump Inhibitor (EPI), Minimum Inhibitory Concentration (Table 2, EPI Conc. 0 μg/ml) [µg/mL]	Levofloxacin MIC Against P. aeruginosa PAM1001 in Presence of Efflux Pump Inhibitor (EPI), Minimum Inhibitory Concentration (Table 2, EPI Conc. 0.625 μg/ml) [µg/mL]	Levofloxacin MIC Against P. aeruginosa PAM1001 in Presence of Efflux Pump Inhibitor (EPI), Minimum Inhibitory Concentration (Table 2, EPI Conc. 5 μg/ml) [µg/mL]	Levofloxacin MIC Against P. aeruginosa PAM1001 in Presence of Efflux Pump Inhibitor (EPI), Minimum Inhibitory Concentration (Table 2, EPI Conc. 10 μg/ml) [µg/mL]	Levofloxacin MIC Against P. aeruginosa PAM1001 in Presence of Efflux Pump Inhibitor (EPI), Minimum Inhibitory Concentration (Table 2, EPI Conc. 40 μg/ml) [µg/mL]	Levofloxacin MIC Against P. aeruginosa PAM1001 in Presence of Efflux Pump Inhibitor (EPI), Minimum Inhibitory Concentration [2] [µg/mL]	Levofloxacin MIC Against P. aeruginosa PAM1001 in Presence of Efflux Pump Inhibitor (EPI), Minimum Inhibitory Concentration (Table 3, EPI Conc. 0 μg/ml) [µg/mL]	Levofloxacin MIC Against P. aeruginosa PAM1001 in Presence of Efflux Pump Inhibitor (EPI), Minimum Inhibitory Concentration (Table 3, EPI Conc. 0.625 μg/ml) [µg/mL]	Levofloxacin MIC Against P. aeruginosa PAM1001 in Presence of Efflux Pump Inhibitor (EPI), Minimum Inhibitory Concentration (Table 3, EPI Conc. 5 μg/ml) [µg/mL]	Levofloxacin MIC Against P. aeruginosa PAM1001 in Presence of Efflux Pump Inhibitor (EPI), Minimum Inhibitory Concentration (Table 3, EPI Conc. 10 μg/ml) [µg/mL]	Levofloxacin MIC Against P. aeruginosa PAM1001 in Presence of Efflux Pump Inhibitor (EPI), Minimum Inhibitory Concentration (Table 3, EPI Conc. 40 μg/ml) [µg/mL]	Levofloxacin MIC Against P. aeruginosa PAM1001 in Presence of Efflux Pump Inhibitor (EPI), Minimum Inhibitory Concentration [3] [µg/mL]	Levofloxacin MIC Against P. aeruginosa PAM1001 in Presence of Efflux Pump Inhibitor (EPI), Minimum Inhibitory Concentration (Table 4, EPI Conc. 0 μg/ml) [µg/mL]	Levofloxacin MIC Against P. aeruginosa PAM1001 in Presence of Efflux Pump Inhibitor (EPI), Minimum Inhibitory Concentration (Table 4, EPI Conc. 0.625 μg/ml) [µg/mL]	further results
D-Ornithyl-β-[N-(isobutyl)]alanine quinoline-3-amide [Compound 40 (Table 3)]	4	4	1	0.06	0.015	0.03	4	4	1	0.06	0.06	0.06	4	4	0.06	0.015	0.015	0.015	4	4	Levofloxacin MIC Against P. aeruginosa PAM1001 in Presence of Efflux Pump Inhibitor (EPI), Minimum Inhibitory Concentration (Table 1, EPI Conc. […]): 4 µg/mL; Levofloxacin MIC Against P. aeruginosa PAM1001 in Presence of Efflux Pump Inhibitor (EPI), Minimum Inhibitory Concentration (Table 4, EPI Conc. 5 μg/ml): 1 µg/mL; Levofloxacin MIC Against P. aeruginosa PAM1001 in Presence of Efflux Pump Inhibitor (EPI), Minimum Inhibitory Concentration (Table 4, EPI Conc. 10 μg/ml): 0.25 µg/mL; Levofloxacin MIC Against P. aeruginosa PAM1001 in Presence of Efflux Pump Inhibitor (EPI), Minimum Inhibitory Concentration (Table 4, EPI Conc. 40 μg/ml): 0.06 µg/mL; Levofloxacin MIC Against P. aeruginosa PAM1001 in Presence of Efflux Pump Inhibitor (EPI), Minimum Inhibitory Concentration [4]: 0.06 µg/mL
Phenylalanyl-Nα -methylornithine 2-(naphthylmethyl)amide [Compound 17 (Table 1)]	4	4	0.25	0.125	0.125	0.06	4	4	4	2	0.03	0.50	4	4	4	2	0.25	1	4	4	Levofloxacin MIC Against P. aeruginosa PAM1001 in Presence of Efflux Pump Inhibitor (EPI), Minimum Inhibitory Concentration (Table 2, EPI Conc. […]): 4 µg/mL; Levofloxacin MIC Against P. aeruginosa PAM1001 in Presence of Efflux Pump Inhibitor (EPI), Minimum Inhibitory Concentration (Table 3, EPI Conc. […]): 4 µg/mL; Levofloxacin MIC Against P. aeruginosa PAM1001 in Presence of Efflux Pump Inhibitor (EPI), Minimum Inhibitory Concentration (Table 4, EPI Conc. 5 μg/ml): 0.50 µg/mL; Levofloxacin MIC Against P. aeruginosa PAM1001 in Presence of Efflux Pump Inhibitor (EPI), Minimum Inhibitory Concentration (Table 4, EPI Conc. 10 μg/ml): 0.125 µg/mL; Levofloxacin MIC Against P. aeruginosa PAM1001 in Presence of Efflux Pump Inhibitor (EPI), Minimum Inhibitory Concentration (Table 4, EPI Conc. 40 μg/ml): 0.125 µg/mL; Levofloxacin MIC Against P. aeruginosa PAM1001 in Presence of Efflux Pump Inhibitor (EPI), Minimum Inhibitory Concentration [4]: 0.125 µg/mL
β-(2-Thiaizolyl)alanyl-Nα -methylornithine 2-naphthylamide [Compound 30 (Table 1)]	4	4	1	0.25	0.25	0.25	4	4	2	1	0.25	0.50	–	–	–	–	–	–	–	–	Levofloxacin MIC Against P. aeruginosa PAM1001 in Presence of Efflux Pump Inhibitor (EPI), Minimum Inhibitory Concentration (Table 2, EPI Conc. […]): 4 µg/mL
